The values below are quoted from earlier work in PMC8492600 (Cell Systems, 2021).

Data set [1] deals with HLA-A*02:01 (Homo sapiens, UniProt P04439, D140Y/D185E/D98H/E176V/E277Q/G131W/G231S/I119V/I121R/I166T/I218V/L300P/L318F/N151K/N90K/P208A/P217A/Q86G/Q94H/R138H/R169H/T345S).
Data set [2] deals with HLA-B*40:01 (Homo sapiens, UniProt P01889, A65T/A93T/A95T/D138N/D98Y/E176V/E69K/N87E/Q56L/Q94N/R180L/S121R/S35A/S48T/T167S/V36M/W171L/Y33H/Y91S).

On to GFMWLSYFI, for which the “binding of the mutated epitope to HLA-A*02:01” value in data set [1] was “lose binding”.
With MKVTPSGTWL, in data set [2], the “binding of the mutated epitope to HLA-B*40:01” value was “lose binding”.
